How the values were obtained:
Test in all cases: KINOMEscan competition binding
PDGFRB = PDGFRB (Homo sapiens, UniProt P09619); settings: read-out: Percent Control
Summary of the method: (§1)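 % Ctrl (lower = stronger binding) reflects competition between 10 μM compound and an immobilized ligand targeting the active site.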

[1] = biological target: ABL1(F317I)-phosphorylated (Homo sapiens, UniProt P00519, F317I); settings: read-out: Percent Control
Summary of the method: as §1

EGFR(G719S) = EGFR(G719S) (Homo sapiens, UniProt P00533, G719S); settings: read-out: Percent Control
Summary of the method: as §1

CSK = CSK (Homo sapiens, UniProt P41240); settings: read-out: Percent Control
CSK, sequence (P41240 whole entry): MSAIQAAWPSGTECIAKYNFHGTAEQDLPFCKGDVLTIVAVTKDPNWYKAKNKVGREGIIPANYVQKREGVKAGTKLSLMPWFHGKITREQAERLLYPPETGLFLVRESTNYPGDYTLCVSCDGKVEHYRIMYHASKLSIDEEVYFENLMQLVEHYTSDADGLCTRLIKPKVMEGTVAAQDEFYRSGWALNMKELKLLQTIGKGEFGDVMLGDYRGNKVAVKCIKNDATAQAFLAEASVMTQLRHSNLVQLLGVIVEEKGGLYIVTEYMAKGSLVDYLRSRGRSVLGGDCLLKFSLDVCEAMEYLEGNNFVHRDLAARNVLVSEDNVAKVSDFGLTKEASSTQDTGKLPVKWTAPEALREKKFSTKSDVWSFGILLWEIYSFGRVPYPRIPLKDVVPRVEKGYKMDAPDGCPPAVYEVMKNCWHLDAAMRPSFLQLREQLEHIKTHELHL
Summary of the method: as §1

KIT(V559D) = KIT(V559D) (Homo sapiens, UniProt P10721, V559D); settings: read-out: Percent Control
Summary of the method: as §1

p38-beta = p38-beta (Homo sapiens, UniProt Q15759); settings: p38-beta (Entrez MAPK11), read-out: Percent Control
Summary of the method: as §1

MEK4 = MEK4 (Homo sapiens, UniProt P45985); settings: MEK4 (Entrez MAP2K4), read-out: Percent Control
Summary of the method: as §1

PIP5K1C = biological target: T1, PIP5K1C (Homo sapiens, UniProt O60331); settings: read-out: Percent Control
T1 construct: purchased KINOMEscan (screening service)
Summary of the method: as §1

TAOK3 = biological target: T2, TAOK3 (Homo sapiens, UniProt Q9H2K8); settings: read-out: Percent Control
T2 construct: purchased KINOMEscan (screening platform)
T2 sequence (Q9H2K8 whole entry): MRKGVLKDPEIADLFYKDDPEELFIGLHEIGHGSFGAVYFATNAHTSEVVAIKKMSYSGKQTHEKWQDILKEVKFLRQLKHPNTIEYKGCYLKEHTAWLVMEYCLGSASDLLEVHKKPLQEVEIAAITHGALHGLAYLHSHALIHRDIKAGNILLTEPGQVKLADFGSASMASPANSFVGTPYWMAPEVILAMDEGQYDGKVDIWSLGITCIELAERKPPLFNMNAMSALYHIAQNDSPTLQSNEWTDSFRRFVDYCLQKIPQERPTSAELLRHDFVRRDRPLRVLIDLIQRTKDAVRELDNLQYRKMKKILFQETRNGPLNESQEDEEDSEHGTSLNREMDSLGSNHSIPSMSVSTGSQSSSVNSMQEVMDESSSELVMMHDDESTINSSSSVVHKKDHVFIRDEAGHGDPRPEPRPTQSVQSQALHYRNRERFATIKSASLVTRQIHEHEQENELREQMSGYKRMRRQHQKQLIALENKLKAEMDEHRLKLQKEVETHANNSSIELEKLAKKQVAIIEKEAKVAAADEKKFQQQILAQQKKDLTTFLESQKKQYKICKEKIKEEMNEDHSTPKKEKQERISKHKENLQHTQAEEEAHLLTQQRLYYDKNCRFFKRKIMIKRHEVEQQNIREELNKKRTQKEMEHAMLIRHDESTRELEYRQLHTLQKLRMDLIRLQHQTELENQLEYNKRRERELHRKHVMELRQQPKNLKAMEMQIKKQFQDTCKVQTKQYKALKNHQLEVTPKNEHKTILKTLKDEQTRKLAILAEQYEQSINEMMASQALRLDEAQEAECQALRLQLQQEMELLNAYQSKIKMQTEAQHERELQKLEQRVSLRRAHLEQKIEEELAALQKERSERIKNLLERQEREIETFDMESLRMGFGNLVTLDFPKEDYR
Summary of the method: as §1

FER = FER (Homo sapiens, UniProt P16591); settings: read-out: Percent Control
Summary of the method: as §1

MAP4K2 = MAP4K2 (Homo sapiens, UniProt Q12851); settings: read-out: Percent Control
Summary of the method: as §1

BTK = biological target: T3, BTK (Homo sapiens, UniProt Q06187); settings: read-out: Percent Control
T3 construct: purchased KINOMEscan (panel service)
Summary of the method: as §1

HCK = HCK (Homo sapiens, UniProt P08631); settings: read-out: Percent Control
Summary of the method: as §1

HPK1 = HPK1 (Homo sapiens, UniProt Q92918); settings: HPK1 (Entrez MAP4K1), read-out: Percent Control
HPK1, sequence (Q92918 whole entry): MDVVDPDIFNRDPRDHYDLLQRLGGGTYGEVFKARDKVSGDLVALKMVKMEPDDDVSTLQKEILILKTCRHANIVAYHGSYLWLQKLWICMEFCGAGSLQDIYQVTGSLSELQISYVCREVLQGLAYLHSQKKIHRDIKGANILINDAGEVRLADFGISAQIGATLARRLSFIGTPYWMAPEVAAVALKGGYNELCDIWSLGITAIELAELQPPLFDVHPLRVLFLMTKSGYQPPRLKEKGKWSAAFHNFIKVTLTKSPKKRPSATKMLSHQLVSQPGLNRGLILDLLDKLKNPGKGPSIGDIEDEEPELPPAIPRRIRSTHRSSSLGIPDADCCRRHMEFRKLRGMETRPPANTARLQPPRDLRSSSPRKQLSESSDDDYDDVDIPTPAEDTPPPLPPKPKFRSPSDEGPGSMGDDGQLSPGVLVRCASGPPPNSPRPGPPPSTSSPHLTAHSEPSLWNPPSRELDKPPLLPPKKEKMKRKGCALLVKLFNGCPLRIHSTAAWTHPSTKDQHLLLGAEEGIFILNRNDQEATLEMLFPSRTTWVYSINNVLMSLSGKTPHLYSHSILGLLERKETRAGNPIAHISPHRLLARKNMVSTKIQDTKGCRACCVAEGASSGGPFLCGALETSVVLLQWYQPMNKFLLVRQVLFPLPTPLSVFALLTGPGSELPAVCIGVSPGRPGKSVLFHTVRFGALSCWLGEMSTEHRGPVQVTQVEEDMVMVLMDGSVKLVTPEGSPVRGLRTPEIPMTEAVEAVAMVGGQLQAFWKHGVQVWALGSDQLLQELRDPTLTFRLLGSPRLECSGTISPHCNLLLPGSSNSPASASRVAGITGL
Summary of the method: as §1

EGFR(E746-A750del) = EGFR(E746-A750del) (Homo sapiens, UniProt P00533, DEL746-750); settings: read-out: Percent Control
EGFR(E746-A750del), sequence (P00533 with tags, fused parts or gaps DEL746-750): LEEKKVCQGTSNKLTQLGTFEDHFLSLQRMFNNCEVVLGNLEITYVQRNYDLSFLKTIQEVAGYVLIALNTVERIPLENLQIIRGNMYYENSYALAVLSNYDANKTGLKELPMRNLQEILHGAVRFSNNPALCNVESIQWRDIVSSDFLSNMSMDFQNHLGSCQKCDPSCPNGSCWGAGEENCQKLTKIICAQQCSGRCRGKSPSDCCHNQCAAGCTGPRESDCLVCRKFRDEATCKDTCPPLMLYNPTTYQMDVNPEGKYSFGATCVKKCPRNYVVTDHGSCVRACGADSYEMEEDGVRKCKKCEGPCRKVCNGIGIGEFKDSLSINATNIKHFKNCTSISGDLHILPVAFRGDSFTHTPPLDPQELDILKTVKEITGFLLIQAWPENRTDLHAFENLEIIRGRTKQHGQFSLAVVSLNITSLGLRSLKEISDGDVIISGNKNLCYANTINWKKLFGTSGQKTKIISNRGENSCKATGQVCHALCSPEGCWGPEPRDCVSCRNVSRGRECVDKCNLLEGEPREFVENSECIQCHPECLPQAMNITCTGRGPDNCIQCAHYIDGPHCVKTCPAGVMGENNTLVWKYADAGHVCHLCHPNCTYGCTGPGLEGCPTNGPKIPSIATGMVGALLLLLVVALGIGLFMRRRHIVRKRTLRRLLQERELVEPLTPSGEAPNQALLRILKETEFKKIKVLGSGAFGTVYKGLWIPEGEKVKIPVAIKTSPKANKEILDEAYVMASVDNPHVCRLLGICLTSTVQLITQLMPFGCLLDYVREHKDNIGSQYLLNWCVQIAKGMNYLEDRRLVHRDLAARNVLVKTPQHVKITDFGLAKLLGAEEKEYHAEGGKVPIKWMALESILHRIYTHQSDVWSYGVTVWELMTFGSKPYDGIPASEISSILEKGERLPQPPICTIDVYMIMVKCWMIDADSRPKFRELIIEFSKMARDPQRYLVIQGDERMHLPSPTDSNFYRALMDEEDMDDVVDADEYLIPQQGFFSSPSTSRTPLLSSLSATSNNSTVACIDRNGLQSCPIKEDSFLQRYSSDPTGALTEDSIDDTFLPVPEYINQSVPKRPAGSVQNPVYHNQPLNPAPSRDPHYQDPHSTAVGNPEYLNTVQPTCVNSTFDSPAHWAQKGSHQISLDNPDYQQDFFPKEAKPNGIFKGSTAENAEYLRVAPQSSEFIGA
Summary of the method: as §1

EPHA3 = biological target: T4, EPHA3 (Homo sapiens, UniProt P29320); settings: read-out: Percent Control
T4 construct: purchased KINOMEscan (screening service)
Summary of the method: as §1

YES = biological target: T5, YES (Homo sapiens, UniProt P07947); settings: YES (Entrez YES1), read-out: Percent Control
T5 construct: purchased KINOMEscan (panel service)
Summary of the method: as §1

p38-alpha = biological target: T6, p38-alpha (Homo sapiens, UniProt Q16539); settings: p38-alpha (Entrez MAPK14), read-out: Percent Control
T6 construct: purchased KINOMEscan (panel service)
T6 sequence (Q16539 whole entry): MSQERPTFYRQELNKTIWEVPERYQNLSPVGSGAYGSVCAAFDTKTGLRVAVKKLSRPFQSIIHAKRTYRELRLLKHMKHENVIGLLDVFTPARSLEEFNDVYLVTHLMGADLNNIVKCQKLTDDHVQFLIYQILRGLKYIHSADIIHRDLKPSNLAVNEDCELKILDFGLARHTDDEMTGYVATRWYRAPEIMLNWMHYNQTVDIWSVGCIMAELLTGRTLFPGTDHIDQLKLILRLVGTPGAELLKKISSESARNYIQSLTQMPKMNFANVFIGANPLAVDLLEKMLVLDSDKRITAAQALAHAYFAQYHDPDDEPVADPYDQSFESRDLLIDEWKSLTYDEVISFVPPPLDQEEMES
Summary of the method: as §1

DDR1 = DDR1 (Homo sapiens, UniProt Q08345); settings: read-out: Percent Control
Summary of the method: as §1

FYN = biological target: T7, FYN (Homo sapiens, UniProt P06241); settings: read-out: Percent Control
T7 construct: purchased KINOMEscan (panel service)
Summary of the method: as §1

BLK = BLK (Homo sapiens, UniProt P51451); settings: read-out: Percent Control
BLK, sequence (P51451 whole entry): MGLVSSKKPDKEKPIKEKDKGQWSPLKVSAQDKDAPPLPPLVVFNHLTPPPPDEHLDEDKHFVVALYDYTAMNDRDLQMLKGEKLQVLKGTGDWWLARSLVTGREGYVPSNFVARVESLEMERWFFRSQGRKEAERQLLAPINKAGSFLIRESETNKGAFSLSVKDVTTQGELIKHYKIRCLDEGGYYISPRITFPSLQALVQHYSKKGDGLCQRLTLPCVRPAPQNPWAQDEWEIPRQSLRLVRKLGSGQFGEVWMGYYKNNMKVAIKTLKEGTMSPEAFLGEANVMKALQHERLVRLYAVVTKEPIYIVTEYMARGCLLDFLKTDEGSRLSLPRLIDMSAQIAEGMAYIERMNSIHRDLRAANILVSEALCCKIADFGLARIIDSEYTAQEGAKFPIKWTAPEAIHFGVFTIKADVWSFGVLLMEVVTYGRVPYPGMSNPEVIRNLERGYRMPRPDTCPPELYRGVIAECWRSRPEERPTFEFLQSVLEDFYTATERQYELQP
Summary of the method: as §1

TNNI3K = biological target: T8, TNNI3K (Homo sapiens, UniProt Q59H18); settings: read-out: Percent Control
T8 construct: purchased KINOMEscan (panel service)
Summary of the method: as §1

KIT = biological target: T9, KIT (Homo sapiens, UniProt P10721); settings: read-out: Percent Control
T9 construct: purchased KINOMEscan (panel service)
Summary of the method: as §1

PIP5K2C = biological target: T10, PIP5K2C (Homo sapiens, UniProt Q8TBX8); settings: PIP5K2C (Entrez PIP4K2C), read-out: Percent Control
T10 construct: purchased KINOMEscan (screening service)
T10 sequence (Q8TBX8 whole entry): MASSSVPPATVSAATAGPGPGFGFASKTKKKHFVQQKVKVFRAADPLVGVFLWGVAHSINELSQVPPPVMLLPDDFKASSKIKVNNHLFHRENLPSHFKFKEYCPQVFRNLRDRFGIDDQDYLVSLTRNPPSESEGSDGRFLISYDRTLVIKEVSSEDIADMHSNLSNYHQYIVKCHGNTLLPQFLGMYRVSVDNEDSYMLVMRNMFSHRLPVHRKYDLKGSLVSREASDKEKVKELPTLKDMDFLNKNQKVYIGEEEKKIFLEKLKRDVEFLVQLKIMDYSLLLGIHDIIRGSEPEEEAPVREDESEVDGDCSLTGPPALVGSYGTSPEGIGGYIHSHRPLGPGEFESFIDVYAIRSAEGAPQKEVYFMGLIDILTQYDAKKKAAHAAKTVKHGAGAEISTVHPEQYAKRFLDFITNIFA
Summary of the method: as §1

KIT(V559D, V654A) = KIT(V559D, V654A) (Homo sapiens, UniProt P10721, V559D/V654A); settings: read-out: Percent Control
Summary of the method: as §1

EGFR(L858R, T790M) = biological target: T11, EGFR(L858R, T790M) (Homo sapiens, UniProt P00533, L858R/T790M); settings: read-out: Percent Control
T11 construct: purchased KINOMEscan (screening platform)
Summary of the method: as §1

AURKB = biological target: T12, AURKB (Homo sapiens, UniProt Q96GD4); settings: read-out: Percent Control
T12 construct: purchased KINOMEscan (screening service)
T12 sequence (Q96GD4 whole entry): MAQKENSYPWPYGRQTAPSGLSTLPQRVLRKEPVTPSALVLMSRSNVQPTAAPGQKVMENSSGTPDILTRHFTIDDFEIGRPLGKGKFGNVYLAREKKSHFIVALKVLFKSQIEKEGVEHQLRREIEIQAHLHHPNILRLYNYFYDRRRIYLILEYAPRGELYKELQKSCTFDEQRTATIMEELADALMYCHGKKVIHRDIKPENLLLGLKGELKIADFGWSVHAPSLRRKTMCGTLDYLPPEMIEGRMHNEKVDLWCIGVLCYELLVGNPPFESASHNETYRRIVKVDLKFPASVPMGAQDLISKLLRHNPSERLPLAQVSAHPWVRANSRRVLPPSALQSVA
Summary of the method: as §1

CSF1R = biological target: T13, CSF1R (Homo sapiens, UniProt P07333); settings: read-out: Percent Control
T13 construct: purchased KINOMEscan (panel service)
Summary of the method: as §1

EGFR(S752-I759del) = EGFR(S752-I759del) (Homo sapiens, UniProt P00533, DEL752-759); settings: read-out: Percent Control
Summary of the method: as §1

[2] = biological target: ABL1(T315I)-phosphorylated (Homo sapiens, UniProt P00519, T315I); settings: read-out: Percent Control
Summary of the method: as §1

TNIK = TNIK (Homo sapiens, UniProt Q9UKE5); settings: read-out: Percent Control
Summary of the method: as §1

## Cc1ccc(Nc2ncc3c(n2)N(C)CN(c2cc(NC(=O)c4cccc(C(F)(F)F)c4)ccc2C)C3)cn1 [IA-9, N-(4-methyl-3-(1-methyl-7-((6-methylpyridin-3-yl)amino)-1,4-dihydropyrimido[4,5-d]pyrimidin-3(2H)-yl)phenyl)-3-(trifluoromethyl)benzamide]
PDGFRB
  remaining binding at 10 µM: 0%
[1]
  remaining binding at 10 µM: 4.1%
EGFR(G719S)
  remaining binding at 10 µM: 0%
CSK
  remaining binding at 10 µM: 0.9%
KIT(V559D)
  remaining binding at 10 µM: 0%
p38-beta
  remaining binding at 10 µM: 0%
MEK4
  remaining binding at 10 µM: 2%
PIP5K1C
  remaining binding at 10 µM: 21%
TAOK3
  remaining binding at 10 µM: 29%
FER
  remaining binding at 10 µM: 3.6%
MAP4K2
  remaining binding at 10 µM: 4.6%
BTK
  remaining binding at 10 µM: 0.15%
HCK
  remaining binding at 10 µM: 0.55%
HPK1
  remaining binding at 10 µM: 3.8%
EGFR(E746-A750del)
  remaining binding at 10 µM: 2.3%
EPHA3
  remaining binding at 10 µM: 11%
YES
  remaining binding at 10 µM: 0.05%
p38-alpha
  remaining binding at 10 µM: 0.1%
DDR1
  remaining binding at 10 µM: 1.1%
FYN
  remaining binding at 10 µM: 0.05%
BLK
  remaining binding at 10 µM: 0.3%
TNNI3K
  remaining binding at 10 µM: 0.1%
KIT
  remaining binding at 10 µM: 0.05%
PIP5K2C
  remaining binding at 10 µM: 19%
KIT(V559D, V654A)
  remaining binding at 10 µM: 0.35%
EGFR(L858R, T790M)
  remaining binding at 10 µM: 24%
AURKB
  remaining binding at 10 µM: 15%
CSF1R
  remaining binding at 10 µM: 0.15%
EGFR(S752-I759del)
  remaining binding at 10 µM: 0%
[2]
  remaining binding at 10 µM: 4.1%
TNIK
  remaining binding at 10 µM: 4.8%
